Source: patent US20220241310A1, “THIARABINE- AND THIARABINE PRODRUG-BASED TREATMENTS” (Southern Research Institute, priority 2019, published 2022)

Key:
[1] = system: OVCAR-3; test: IC50 in OVCAR-3 tumor cell model; format: cell-based; conditions: human ovarian cancer model
Source text: (§1) Representative IC50 values of thiarabine and related prodrugs tested in two tumor cell models, a humanized murine colorectal model MC38^hPDL-1 and a human ovarian cancer model OVCAR-3, are shown in Table 1 below.

[2] = system: MC38^hPDL-1; test: IC50 in MC38^hPDL-1 tumor cell model; format: cell-based; conditions: Mus musculus, MC38-hPD-L1; humanized murine colorectal model; read-out: MC38^huPD=L1 (IC50 μM)
Source text: as §1

[3] = system: MC38^hPDL-1 colon tumor cells; test: MC38^hPDL-1 tumor response to mono- and combination-therapy in mice; format: in vivo, C57BL/6^hPD-1/hPD-L1 mice; conditions: combination with Keytruda; subcutaneous MC38^hPDL-1 tumor; FIG. 1A/1B
Procedure: A total of 32 C57BL/6^hPD-1/hPD-L1 mice, male and female, were injected subcutaneously with five hundred thousand (5×10^5) MC38^hPDL-1 colon tumor cells in the right flank at a volume of 0.1 mL. Innoculation day was marked as Day 0. Tumor measurements were taken biweekly for the duration of the study. Tumor weights (mg) were calculated using the equation for an ellipsoid sphere: (l×w^2)/2=mm^3, where l and w refer to the larger and smaller dimensions collected at each measurement and assuming unit density (1 mm^3=1 mg). Target tumor weight for initiation of treatment was approximately 75 to 144 mg for a target group mean tumor weight of approximately 110 mg. The animals on study were randomly assigned to four groups to contain two males and six females. Dosing began on day 13 of the study. Re-challenge of MC38^1-1 in the opposite flank of tumor-free mice from the Keytruda and combination groups occurred on day 31 of the study and mice were monitored for tumor growth for the duration of the study.
Thiarabine: The 500 mg vial was reconstituted with 4.6 mL of saline (0.9% Sodium chloride) to yield a 100 mg/mL stock solution. Each day of dosing, the 100 mg/mL solution was diluted to […] with saline. The dose concentration was 10 mL/kg with a dose volume of 0.1 mL for dose of 30 mg/kg. Mice were dosed IP Q2Dx10. […]

| Compound | IC50 [1] | IC50 [2] | tumor volume over time [3] |
| --- | --- | --- | --- |
| CC(C)OC(=O)[C@H](C)NP(=O)(OC[C@H]1S[C@@H](n2ccc(N)nc2=O)[C@@H](O)[C@@H]1O)Oc1ccccc1 (single isomer, unassigned) [SRI-41302] | 1.25 µM | 15.8 µM | total tumor regression |
| CCC(CC)COC(=O)[C@H](C)NP(=O)(OC[C@H]1S[C@@H](n2ccc(N)nc2=O)[C@@H](O)[C@@H]1O)Oc1ccccc1 (stereo partly drawn) [SRI-44340, ethylbutyl ((((2R,3S,4S,5R)-5-(4-amino-2-oxopyrimidin-1(2H)-yl)-3,4-dihydroxytetrahydrothiophen-2-yl)methoxy)(phenoxy)phosphoryl)-1-alaninate] | 0.65 µM | – | – |
| Nc1ccn([C@@H]2S[C@H](CO)[C@@H](O)[C@@H]2O)c(=O)n1 [Thiarabine] | 1.13 µM | 2.71 µM | total tumor regression |
